The values that follow are results of earlier work, collected in patent US10751314B2, “Compositions comprising rumenic acid-rich conjugated linoleic acid for joint health” (STEPAN SPECIALTY PRODUCTS, LLC, priority 2016, dated 2020).

For data set [1], the system named is young men and women with birch pollen allergy. As to conditions: 8 weeks of supplementation.
The subject of a further data set is human epithelial cells. The note with it: via activation of PPARγ.
A further data set concerns PPARγ. The note with it: mouse macrophage cells.

Regarding `CCCCCC/C=C/C=C\CCCCCCCC(=O)O` [RA, cis-9, trans-11 linoleic acid], the “Allergic responses mediated by inflammation” value in data set [1] is reported as “reduced”. In the data set with human epithelial cells, the Inflammatory responses result is “reduced inflammatory responses”. Besides, in the data set with PPARγ, the Antioxidant activity entry is recorded as “served as an antioxidant” and the PPARγ activation result is reported as “activated”.
